# From patent publication US8741884B2, “Compounds for the treatment of hepatitis C” (priority 2010, dated 2014)
# System: HCV pseudoparticles (genotype 1a HCV E1 and E2 envelope, H77C isolate)
# Test: microbe, parasite or virus in culture
# Type: cell-based
# Conditions: Hepatitis C virus, Huh-7, 48 h, class symbol; HCV pseudoparticles genotype 1a (H77C), Huh7 cells, luciferase 2 days after infection, average of duplicates
row,Compound,EC50 [nM]
1,CC(C)(C)OC(=O)N[C@@H](CCNC(=O)c1ccc2cc1OCCCCCCOc1ccc(cc1)CNc1nc(nc(OCC(F)(F)F)n1)N2)C(=O)O [Example 1411],0.1 to 100
2,COC(=O)c1ccc2cc1OCCCCCCOc1cccc(c1)CNc1nc(nc(OCC(F)(F)F)n1)N2 [Example 1803],1000 to 50000
3,CC(C)(C)OC(=O)N1CCC(CNC(=O)c2ccc3cc2OCCCCCCCCOc2ccc(cc2)CNc2nc(nc(OCC(F)(F)F)n2)N3)C1 (stereo not drawn) [Example 1105],0.1 to 100
4,CCCCN1CCCOc2ccc(cc2)CNc2nc(nc(OCC(F)(F)F)n2)Nc2ccc(C(=O)NCC3(CN4CCCC4)CC3)c(c2)OCCC1 [Example 3014],0.1 to 100
5,O=C(NC(C(=O)O)C1CCCNC1)c1ccc2cc1OCCOCCOCCOc1ccc(cc1)CNc1nc(nc(OCC(F)(F)F)n1)N2 (stereo not drawn) [Example 1606],0.1 to 100
6,O=C1COCC(=O)NCc2cccc(c2)Nc2nc(nc(OCC(F)(F)F)n2)NCCN1 [Example 1015],1000 to 50000
7,O=C(NC[C@H](NC(=O)c1ccc2cc1OCCCCCCOc1ccc(cc1)CNc1nc(nc(OCC(F)(F)F)n1)N2)C(=O)O)c1ccccc1 [Example 1562],0.1 to 100
8,O=C(NCC1CCNC1)c1ccc2cc1OCCCCCCCCOc1ccc(cc1)CNc1nc(nc(OCC(F)(F)F)n1)N2 (stereo not drawn) [Example 1151],0.1 to 100
9,O=C(NCC1(CN2CCCC2)CC1)c1ccc2cc1OCC=CCOc1ccc(cc1)CNc1nc(nc(OCC(F)(F)F)n1)N2 [Example 2006],0.1 to 100
10,O=C(NCC1(CN2CCCC2)CC1)c1ccc2cc1OCCCCCCNc1nc(nc(OCC(F)(F)F)n1)N2 [Example 4001],1000 to 50000
11,O=C1NCCCCCCNc2nc(nc(OCC(F)(F)F)n2)Nc2cccc1c2 [Example 1001],1000 to 50000
12,O=C(NC1CCCNC1)c1ccc2cc1OCCCCCCCCOc1ccc(cc1)CNc1nc(nc(OCC(F)(F)F)n1)N2 (stereo not drawn) [Example 1013],0.1 to 100
13,CC(C)(C)OC(=O)N1CCCCOc2cc(ccc2C(=O)NCC2(CN3CCCC3)CC2)Nc2nc(nc(OCC(F)(F)F)n2)NCc2ccc(cc2)OCCC1 [Example 3016],0.1 to 100
14,COC(=O)N1CCCCOc2cc(ccc2C(=O)NCC2(CN3CCCC3)CC2)Nc2nc(nc(OCC(F)(F)F)n2)NCc2ccc(cc2)OCCC1 [Example 3019],0.1 to 100
15,COC(=O)[C@@H](CNC(=O)OC(C)(C)C)NC(=O)c1ccc2cc1OCCCCCCOc1ccc(cc1)CNc1nc(nc(OCC(F)(F)F)n1)N2 [Example 1309],100 to 1000
16,COC(=O)c1ccc2cc1OCCCN(C(=O)OC(C)(C)C)CCCOc1ccc(cc1)CNc1nc(nc(OCC(F)(F)F)n1)N2 [Example 3001],0.1 to 100
17,O=C(NCC1(CN2CCCC2)CC1)c1ccc2cc1OCCCCCCCCOc1ccc(cc1)CNc1nc(nc(OCC(F)(F)F)n1)N2 [Example 1102],0.1 to 100
18,CC(C)(C)OC(=O)N1CCCC(C(NC(=O)c2ccc3cc2OCCCCCCOc2ccc(cc2)CNc2nc(nc(OCC(F)(F)F)n2)N3)C(=O)O)C1 (stereo not drawn) [Example 1551],0.1 to 100
19,FC(F)(F)COc1nc2nc(n1)Nc1cccc(c1)OCC=CCOc1ccc(cc1)CN2 [Example 2001],0.1 to 100

row,Compound,EC50 [nM]
1,CNC(=O)NC[C@H](NC(=O)c1ccc2cc1OCCCCCCOc1ccc(cc1)CNc1nc(nc(OCC(F)(F)F)n1)N2)C(=O)OC [Example 1706],0.1 to 100
2,CCCN1CCCOc2ccc(cc2)CNc2nc(nc(OCC(F)(F)F)n2)Nc2ccc(C(=O)NCC3(CN4CCCC4)CC3)c(c2)OCCC1 [Example 3012],0.1 to 100
3,COC(=O)C(NC(=O)c1ccc2cc1OCCOCCOCCOc1ccc(cc1)CNc1nc(nc(OCC(F)(F)F)n1)N2)C1CCCNC1 (stereo not drawn) [Example 1607],0.1 to 100
4,C=C1COc2ccc(cc2)CNc2nc(nc(OCC(F)(F)F)n2)Nc2ccc(C(=O)O)c(c2)OC1 [Example 1005],1000 to 50000
5,CC(C)(C)OC(=O)N[C@@H](CCNC(=O)c1ccc2cc1OCCCCCCOc1ccc(cc1)CNc1nc(nc(OCC(F)(F)F)n1)N2)C(=O)OC(C)(C)C [Example 1325],0.1 to 100
6,O=C(NCC1(C(=O)O)CCNCC1)c1ccc2cc1OCCCCCCOc1ccc(cc1)CNc1nc(nc(OCC(F)(F)F)n1)N2 [Example 1504],0.1 to 100
7,N=C(N)NCCC[C@H](NC(=O)c1ccc2cc1OCCCCCCOc1ccc(cc1)CNc1nc(nc(OCC(F)(F)F)n1)N2)C(N)=O [Example 1313],0.1 to 100
8,N=C(N)NCCC[C@H](NC(=O)c1ccc2cc1OCCOCCOCCOc1ccc(cc1)CNc1nc(nc(OCC(F)(F)F)n1)N2)C(=O)O [Example 1602],0.1 to 100
9,CC(C)(C)OC(=O)NC[C@@H](NC(=O)c1ccc2cc1OCCCCCCOc1ccc(cc1)CNc1nc(nc(OCC(F)(F)F)n1)N2)C(=O)O [Example 1556],100 to 1000
10,CCOC(=O)[C@H](CCCNC(=N)N)NC(=O)c1ccc2cc1OCCCCCCOc1ccc(cc1)CNc1nc(nc(OCC(F)(F)F)n1)N2 [Example 1317],0.1 to 100
11,NC(=O)C(Cc1ccccc1)NC(=O)c1ccc2cc1OCCCCCCOc1ccc(cc1)CNc1nc(nc(OCC(F)(F)F)n1)N2 (stereo not drawn) [Example 1319],0.1 to 100
12,CCN1CCCOc2ccc(cc2)CNc2nc(nc(OCC(F)(F)F)n2)Nc2ccc(C(=O)NCC3(CN4CCCC4)CC3)c(c2)OCCC1 [Example 3011],0.1 to 100
13,FC(F)(F)COc1nc2nc(n1)Nc1cccc(c1)OCCCCOc1cccc(c1)N2 [Example 2004],0.1 to 100
14,N=C(N)NCCCCNC(=O)c1ccc2cc1OCCCCCCOc1ccc(cc1)CNc1nc(nc(OCC(F)(F)F)n1)N2 [Example 1314],0.1 to 100
15,CN(C)CC(C)(C)CNC(=O)c1ccc2cc1OCCCCCCCCOc1ccc(cc1)CNc1nc(nc(OCC(F)(F)F)n1)N2 [Example 1010],0.1 to 100
16,C=C1COc2ccc(cc2)CNc2nc(nc(OCC(F)(F)F)n2)Nc2ccc(C(=O)NCC3(CN4CCCC4)CC3)c(c2)OC1 [Example 1006],1000 to 50000
17,CC(C)(C)OC(=O)NC(CNC(=O)c1ccc2cc1OCCCCCCOc1ccc(cc1)CNc1nc(nc(OCC(F)(F)F)n1)N2)C(=O)O (stereo not drawn) [Example 1409],0.1 to 100
18,CCOC(=O)N1CCCOc2ccc(cc2)CNc2nc(nc(OCC(F)(F)F)n2)Nc2ccc(C(=O)NCC3(CN4CCCC4)CC3)c(c2)OCCC1 [Example 3005],0.1 to 100
19,COc1nc2nc(n1)OCc1cccc(c1)Nc1nc(nc(OCC(F)(F)F)n1)NCCN2 [Example 1002],1000 to 50000

row,Compound,EC50 [nM]
1,O=C(O)CC1CCN(C(=O)c2ccc3cc2OCCCCCCCCOc2ccc(cc2)CNc2nc(nc(OCC(F)(F)F)n2)N3)C1 (stereo not drawn) [Example 1132],1000 to 50000
2,FC(F)(F)COc1nc2nc(n1)Nc1cccc(c1)OCC=CCOc1cccc(c1)N2 [Example 2003],0.1 to 100
3,O=C(O)CNC(=O)c1ccc2cc1OCCCCCCCCOc1ccc(cc1)CNc1nc(nc(OCC(F)(F)F)n1)N2 [Example 1131],100 to 1000
4,N=C(N)NC[C@H](NC(=O)c1ccc2cc1OCCCCCCOc1ccc(cc1)CNc1nc(nc(OCC(F)(F)F)n1)N2)C(=O)O [Example 1403],0.1 to 100
5,COC(=O)C(NC(=O)c1ccc2cc1OCCCCCCCCOc1ccc(cc1)CNc1nc(nc(OCC(F)(F)F)n1)N2)C1CCCNC1 (stereo not drawn) [Example 1152],0.1 to 100
6,O=C(c1ccc2cc1OCCCCCCCCOc1ccc(cc1)CNc1nc(nc(OCC(F)(F)F)n1)N2)N1CCC2(CCNC2)C1 (stereo not drawn) [Example 1153],100 to 1000
7,O=C(NCC1CCCN1)c1ccc2cc1OCCCCCCOc1ccc(cc1)CNc1nc(nc(OCC(F)(F)F)n1)N2 (stereo not drawn) [Example 1503],0.1 to 100
8,COC(=O)[C@H](CNC(C)=O)NC(=O)c1ccc2cc1OCCCCCCOc1ccc(cc1)CNc1nc(nc(OCC(F)(F)F)n1)N2 [Example 1701],0.1 to 100
9,CC(=O)N1CCCCOc2cc(ccc2C(=O)NCC2(CN3CCCC3)CC2)Nc2nc(nc(OCC(F)(F)F)n2)NCc2ccc(cc2)OCCC1 [Example 3022],0.1 to 100
10,O=C1NCCNc2nc(nc(OCC(F)(F)F)n2)Nc2cccc(c2)CNC(=O)OCCO1 [Example 1014],1000 to 50000
11,CC[C@@H](C)[C@H](NC(=O)c1ccc2cc1OCCCCCCOc1ccc(cc1)CNc1nc(nc(OCC(F)(F)F)n1)N2)C(=O)O [Example 1404],0.1 to 100
12,O=C(NC(Cc1ccccc1)C(=O)O)c1ccc2cc1OCCCCCCOc1ccc(cc1)CNc1nc(nc(OCC(F)(F)F)n1)N2 (stereo not drawn) [Example 1405],0.1 to 100
13,CC(C)(C)OC(=O)N1CCCOc2ccc(cc2)CNc2nc(nc(OCC(F)(F)F)n2)Nc2ccc(C(=O)O)c(c2)OCCC1 [Example 3002],0.1 to 100
14,CC(C)(C)OC(=O)N1CCC(NC(=O)c2ccc3cc2OCCCCCCOc2ccc(cc2)CNc2nc(nc(OCC(F)(F)F)n2)N3)(C(=O)O)CC1 [Example 1410],100 to 1000
15,COC(=O)[C@H](CNC(=O)c1ccccc1)NC(=O)c1ccc2cc1OCCCCCCOc1ccc(cc1)CNc1nc(nc(OCC(F)(F)F)n1)N2 [Example 1323],0.1 to 100
16,COC(=O)[C@H](CNC(=O)OC(C)(C)C)NC(=O)c1ccc2cc1OCCOCCOCCOc1ccc(cc1)CNc1nc(nc(OCC(F)(F)F)n1)N2 [Example 1604],0.1 to 100
17,CN1CCCOc2ccc(cc2)CNc2nc(nc(OCC(F)(F)F)n2)Nc2ccc(C(=O)NCC3(CN4CCCC4)CC3)c(c2)OCCC1 [Example 3010],0.1 to 100
18,COC(=O)c1ccc2cc1OCCOCCOCCOc1ccc(cc1)CNc1nc(nc(OCC(F)(F)F)n1)N2 [Example 1007],1000 to 50000
19,O=C(O)CCCCNC(=O)c1ccc2cc1OCCCCCCOc1ccc(cc1)CNc1nc(nc(OCC(F)(F)F)n1)N2 [Example 1408],0.1 to 100

# Same assay, conditions: Hepatitis C virus, Huh-7, 48 h, numeric value; HCV pseudoparticles genotype 1a (H77C), Huh7 cells, luciferase 2 days after infection, average of duplicates
row,Compound,EC50 [nM]
1,CC(C)(C)OC(=O)N1CCC(CNC(=O)c2ccc3cc2OCCCCCCCCOc2ccc(cc2)CNc2nc(nc(OCC(F)(F)F)n2)N3)C1 (stereo not drawn) [Example 1105],49.1
2,O=C1COCC(=O)NCc2cccc(c2)Nc2nc(nc(OCC(F)(F)F)n2)NCCN1 [Example 1015],3060
3,O=C(NC[C@H](NC(=O)c1ccc2cc1OCCCCCCOc1ccc(cc1)CNc1nc(nc(OCC(F)(F)F)n1)N2)C(=O)O)c1ccccc1 [Example 1562],28.7
4,O=C(NCC1(CN2CCCC2)CC1)c1ccc2cc1OCCCCCCNc1nc(nc(OCC(F)(F)F)n1)N2 [Example 4001],42600
5,COC(=O)N1CCCCOc2cc(ccc2C(=O)NCC2(CN3CCCC3)CC2)Nc2nc(nc(OCC(F)(F)F)n2)NCc2ccc(cc2)OCCC1 [Example 3019],10.2
6,CC(C)(C)OC(=O)NC[C@@H](NC(=O)c1ccc2cc1OCCCCCCOc1ccc(cc1)CNc1nc(nc(OCC(F)(F)F)n1)N2)C(=O)O [Example 1556],101
7,CN(C)CC(C)(C)CNC(=O)c1ccc2cc1OCCCCCCCCOc1ccc(cc1)CNc1nc(nc(OCC(F)(F)F)n1)N2 [Example 1010],5.14
8,COC(=O)c1ccc2cc1OCCOCCOCCOc1ccc(cc1)CNc1nc(nc(OCC(F)(F)F)n1)N2 [Example 1007],9840

# Same assay, conditions: read-out: EC50
row,Compound,EC50 [nM]
1,C=C1CNCCNc2nc(nc(OCC(F)(F)F)n2)Nc2cccc(c2)CNC1 [Example 1016],1000 to 50000
2,O=C(NC(C(=O)O)C1CCNC1)c1ccc2cc1OCCCCCCOc1ccc(cc1)CNc1nc(nc(OCC(F)(F)F)n1)N2 (stereo not drawn) [Example 1553],0.1 to 100
3,O=C(O)c1ccc2cc1OCCCC=CCCCOc1ccc(cc1)CNc1nc(nc(OCC(F)(F)F)n1)N2 [Example 1020],1000 to 50000
4,O=C(O)c1ccc2cc1OCCCCOC[C@H](c1ccccc1)Nc1nc(nc(OCC(F)(F)F)n1)N2 [Example 1004],1000 to 50000
